What all share (type): in vivo, SD rats
For test [1], the system named is rat pulmonary fibrosis model. Put plainly: Lung tissue pathology, H&E and Masson staining, Szapiel scoring, Example 1. Conditions: for Alveolitis (score): H&E staining; for Alveolitis (score) / Pulmonary fibrosis (score): score 0-3, doses per Table 4, 14 days, X ± SE, N = 6; for Pulmonary fibrosis (score): Masson staining; for alveolitis scores, compared with the model group: P<0.01, P<0.05. As to the method: (§1) A rat pulmonary fibrosis model was prepared using a one-time intratracheal instillation of bleomycin. After the rat was anesthetized by intraperitoneal injection of 10% chloral hydrate (3.0 ml/kg), it was tilted back and fixed on a rat board and irradiated with light source on the throat, and the glottis was seen to open and close in an orderly manner with breathing when the tongue was gently lifted to open the mouth. The indwelling needle was gently pushed into the trachea as the glottis opened and closed, the needle core was pulled out, and whether tracheal intubation was successful was verified by swing of a cotton thread. Bleomycin was injected into the trachea at a dose of 5 mg/kg, and 0.5 ml of air was further injected to ensure the depth of the drug. The rat was held upright and rocked from side to side to ensure even distribution of the drug in the lung. The anesthetized rat was placed on an electric blanket to maintain body temperature. After waking up, it is placed into a corresponding cage. The rats were fed normally until the 28th day, drinking pure water and eating sterile feed freely every day.
(§2) The modeling day was set as day 0.
The left lung was fixed with 10% formaldehyde for 72 hours, embedded in paraffin, sectioned at 4 μm for HE and Masson staining.
Pathological scoring of alveolitis and pulmonary fibrosis was performed according to the Szapiel method, the degree of alveolitis was determined by HE staining, and the degree of pulmonary fibrosis was determined by Masson staining.
The pathological changes in lung tissue were observed using an optical microscope. 6 sections were selected from each group and 6 fields were selected from each section.

The next test concerns α-SMA. Nature of the test: α-SMA expression in lung tissue by immunohistochemistry, Example 1. Conditions: for α-SMA (IOD): lung tissue IHC, doses per Table 4, 14 days, X ± SE, N = 6; for expression of α-SMA protein, compared with the model group: P<0.05. As to the method:
as §1, §2
(§3) The detection was performed by Immunohistochemistry.
(§4) The lung tissue was sliced into 4 μm sections and baked at 60° C. for 3 hours. The paraffin sections were dewaxed in xylene, dehydrated in gradient alcohols, and washed in distilled water for 2 minutes in order. The washed sections were then boiled in 0.01 M citrate buffer in a microwave oven for antigen retrieval. A 3% […] was added dropwise to the sections to block endogenous peroxidase. After the sections were blocked with a 5% BSA blocking solution and incubated at 37° C. for 30 minutes, the primary antibody was added dropwise thereto (the dilution ratio was 1:500 for CoL I, and 1:2000 for α-SMA), and the sections were incubated overnight in a humid box at 4° C. HRP-labeled goat anti-rabbit secondary antibody was added dropwise, and the sections were incubated at 37° C. for 20 minutes; and then SABC was added dropwise and the sections were incubated at 37° C. for 30 minutes. Thereafter, a freshly prepared DAB chromogenic solution was added dropwise, and the sections were observed under a microscope, and the color development was stopped once brownish yellow appeared. The sections were counterstained with hematoxylin for 30 seconds, differentiated with a 1% hydrochloric acid in alcohol for 3 seconds; and dehydrated in gradient alcohols in sequence. The sections were dried in a fume hood, sealed with neutral gum, and dried in the air. Images were collected with Olympus-DP70 microscope (Image-Pro Plus 6.0, IPP 6.0), 6 fields were randomly selected for each section, and the image integrated optical density (IOD) was calculated.

In another test the test system is CoL I. Nature of the test: CoL I expression in lung tissue by immunohistochemistry, Example 1. Conditions: for COL I (IOD): lung tissue IHC, doses per Table 4, 14 days, X ± SE, N = 6; for expression of CoL I protein, compared with the model group: P<0.01, P<0.05. On the procedure: as §1, §2, §3, §4
Test [2] concerns rat pulmonary fibrosis model. Put plainly: R value comprehensive evaluation of 8 indicators, Example 1. Conditions: 8 indicators, R=1 best effect, R=2 no corrective effect, X ± SE, N = 8. On the procedure:
The data were standardized and the Rcomprehensive value data set was established (Rcomprehensive=R−(−2)). […] When Rcomprehensive<1, it means that the comprehensive corrective degree of the drug on such indicators exceeds the normal value.
A total of 8 indicators, i.e., lung function (FVC, FEV0.3, IC, Cydn), lung tissue pathology (H&E staining, Masson staining), and collagen deposition (CoL I, α-SMA) were calculated using the R value comprehensive evaluation method.

The subject of test [3] is rat pulmonary fibrosis model. Put plainly: Lung function (FinePointe PFT) in bleomycin pulmonary fibrosis rats, Example 1. Conditions: for Cydn / FEV0.3: bleomycin 5 mg/kg intratracheal, intragastric once daily day 29-42, doses per Table 4, X ± SE, N = 10. As to the method:
as §1, §2
Before collecting the sample, the rat was anesthetized and submitted to a tracheotomy, and the tracheal tube was inserted into the rat's trachea and fixed. The FinePointe™ series PFT measurement system was used to detect the rat's forced vital capacity (FVC), forced expiratory volume in 0.3 s (FEV 0.3), vital capacity (VC), and dynamic lung compliance (Cydn).

Test [4] deals with rat pulmonary fibrosis model. Put plainly: Lung function in bleomycin pulmonary fibrosis rats, Example 2. Particulars: for FEV0.3, compared with the model group: P<0.01, P<0.05; for Cydn / FEV0.3 / FVC: isoliquiritigenin, paeoniflorin, combination each 0.55 mg/kg/d intragastric, day 29-42, X ± SE, N = 10. As to the method:
In order to evaluate the difference in the efficacy of isoliquiritigenin and paeoniflorin alone and in combination, a study was conducted by splitting the Formula 8 into isoliquiritigenin, paeoniflorin and combination thereof, each adopting the dose of 0.55 mg/kg/d.
The experimental materials and research methods were the same as those in Example 1.
A total of 72 rats were randomly divided into blank group, model group, isoliquiritigenin group, paeoniflorin group, combination group, and pirfenidone group, 6 groups in total, 12 rats in each group, and 6 female/group, 6 male/group. The modeling day was set as day 0. From the 29th day, the blank group (normal rats without modeling) and the model group were administered intragastrically with physiological saline (2 ml/rat), the isoliquiritigenin group was administered with isoliquiritigenin (0.55 mg/kg/d), the paeoniflorin group was administered with paeoniflorin (0.55 mg/kg/d), and the combination group was administered with isoliquiritigenin+paeoniflorin (0.55 mg/kg/d), once daily, for 14 days, and the samples were collected at the end of the 42nd day.
Before collecting the sample, the rats were anesthetized and submitted to a tracheotomy, and the tracheal tube was inserted into the rat's trachea and fixed. The FinePointe™ series PFT measurement system was used to detect the rat's forced vital capacity (FVC), forced expiratory volume in 0.3 s (FEV 0.3), vital capacity (VC), and dynamic lung compliance (Cydn).

For test [5], the system named is rat pulmonary fibrosis model. Nature of the test: Lung tissue pathology, H&E and Masson staining, Szapiel scoring, Example 2. Particulars: for Alveolitis (score): H&E staining; for Alveolitis (score) / Pulmonary fibrosis (score): each 0.55 mg/kg/d, 14 days, X ± SE, N = 6; for Pulmonary fibrosis (score): Masson staining. On the procedure:
The experimental materials and research methods were the same as those in Example 1. […] The modeling day was set as day 0. […] The left lung was fixed with 10% formaldehyde for 72 hours, embedded in paraffin, sectioned at 4 μm for HE and Masson staining. Pathological scoring of alveolitis and pulmonary fibrosis was performed according to the Szapiel method, the degree of alveolitis was determined by HE staining, and the degree of pulmonary fibrosis was determined by Masson staining. The pathological changes in the lung tissue were observed using an optical microscope. 6 sections were selected from each group and 6 fields were selected from each section.

Test [6] relates to rat pulmonary fibrosis model. Put plainly: Lung function in bleomycin pulmonary fibrosis rats, Example 2. Particulars: for IC: isoliquiritigenin, paeoniflorin, combination each 0.55 mg/kg/d intragastric, day 29-42, X ± SE, N = 10.

Consider five compounds from US20260108548A1, “COMPOSITION OF PAEONIFLORIN AND ISOLIQUIRITIGENIN AND USE THEREOF” (HENAN UNIVERSITY OF CHINESE MEDICINE, priority 2023, published 2026).

SMILES strings stand for the structures.

For the compound `COc1ccc(-c2oc3c(CC=C(C)C)c(O[C@@H]4O[C@H](CO)[C@@H](O)[C@H](O)[C@H]4O)cc(O)c3c(=O)c2O[C@@H]2O[C@@H](C)[C@H](O)[C@@H](O)[C@H]2O)cc1` [Formula 3, icariin], in test [1], the “Alveolitis (score)” value is 0.94 ± 0.39 score; the “Pulmonary fibrosis (score)” value was 1.33 ± 0.31 score; the “alveolitis scores, compared with the model group” value is “significantly reduced”. In addition, the “α-SMA (IOD)” value in the test on α-SMA was 12.03 ± 1.87 IOD. Moreover, the “COL I (IOD)” value in the test on CoL I is 17.80 ± 1.44 IOD. Further, the “Total efficacy related indicator R value” in test [2] is listed as 1.76 ± 0.16^∘^. Moreover, in test [3], the Cydn amounted to 0.34 ± 0.05 mL/s and the FEV0.3 is 10.46 ± 1.58 mL/s.
`O=C(/C=C/c1ccc(O)cc1)c1ccc(O)cc1O` [Formula 4, isoliquiritigenin]: in test [4], the “FEV0.3, compared with the model group” value is “increased”; the Cydn amounted to 0.32 ± 0.04 mL/s; the FEV0.3 was 11.09 ± 1.01 mL/s; the FVC stood at 11.34 ± 0.78 mL/s. Also, in test [1], the “Alveolitis (score)” value is 1.72 ± 0.25 score and the “Pulmonary fibrosis (score)” value was 1.78 ± 0.33 score. Besides, in the test on α-SMA, the “α-SMA (IOD)” value was 12.20 ± 0.89 IOD. Moreover, in the test with CoL I, the “expression of CoL I protein, compared with the model group” value is “significantly reduced” and the “COL I (IOD)” value is given as 15.54 ± 2.59 IOD. Further, in test [5], the “Alveolitis (score)” value is 1.68 ± 0.30 score and the “Pulmonary fibrosis (score)” value turned out to be 1.74 ± 0.31 score. Besides, the “pulmonary fibrosis score, compared with the model group” value in test [5] (P<0.01, P<0.05) is recorded as “could reduce”. Further, the IC in test [6] was 9.03 ± 0.88 mL/s. The “Total efficacy related indicator R value” in test [2] is on record as 1.82 ± 0.11^∘∘. In test [3], this compound registered a Cydn of 0.30 ± 0.03 mL/s and an FEV0.3 of 10.42 ± 1.43 mL/s.
On to `COc1ccc(-c2cc(=O)c3c(OC)c(OC)c(OC)c(OC)c3o2)cc1OC` [Formula 5, nobiletin], for which, in test [1], the “Alveolitis (score)” value worked out at 1.39 ± 0.54 score and the “Pulmonary fibrosis (score)” value is 1.56 ± 0.49 score. In the test on α-SMA, the “expression of α-SMA protein, compared with the model group” value is listed as “significantly reduced” and the “α-SMA (IOD)” value is recorded as 9.030 ± 0.8 IOD. Besides, the “COL I (IOD)” value in the test with CoL I is recorded as 18.40 ± 0.89 IOD. The “Total efficacy related indicator R value” in test [2] was 1.48 ± 0.46. For the same compound, in test [3] (P<0.05), the “Cydn, compared with the model group” value is reported as “increased”. In test [3], this compound registered a Cydn of 0.35 ± 0.02 mL/s and an FEV0.3 of 11.44 ± 1.41 mL/s.
Take `C[C@H]1CC[C@@H]2N(C1)C[C@H]1[C@@H]3C[C@H]4[C@@H](C[C@H](O)[C@H]5C[C@@H](O)CC[C@@]54C)[C@@H]3CC[C@@H]1[C@]2(C)O` [Formula 6, peimine]: in test [1], the “Alveolitis (score)” value was found to be 1.17 ± 0.19 score; the “Pulmonary fibrosis (score)” value was determined as 1.39 ± 0.23 score; the “alveolitis scores, compared with the model group” value is “significantly reduced”. Moreover, in the test with α-SMA, the “expression of α-SMA protein, compared with the model group” value is “significantly reduced” and the “α-SMA (IOD)” value was determined as 9.647 ± 0.8 IOD. Moreover, in the test on CoL I, the “COL I (IOD)” value is 17.37 ± 0.89 IOD. The “Total efficacy related indicator R value” in test [2] worked out at 1.57 ± 0.29. In test [3], this compound returned a Cydn of 0.30 ± 0.03 mL/s and an FEV0.3 of 12.04 ± 1.36 mL/s.
With `Cc1ccc(=O)n(-c2ccccc2)c1` [Pirfenidone], in test [4], the “FEV0.3, compared with the model group” value was “increased”; the Cydn was 0.33 ± 0.03 mL/s; the FEV0.3 stood at 13.46 ± 1.04 mL/s; the FVC was 12.34 ± 1.11 mL/s. Further, in test [1], the “Alveolitis (score)” value was 1.33 ± 0.24 score and the “Pulmonary fibrosis (score)” value came to 1.33 ± 0.37 score. In the test with α-SMA, the “α-SMA (IOD)” value is 12.57 ± 1.17 IOD. Moreover, in the test on CoL I, the “expression of CoL I protein, compared with the model group” value is “significantly reduced” and the “COL I (IOD)” value was found to be 10.41 ± 0.63 IOD. Further, in test [5], the “Alveolitis (score)” value worked out at 1.43 ± 0.28 score and the “Pulmonary fibrosis (score)” value was determined as 1.46 ± 0.39 score. Moreover, in test [5] (P<0.01, P<0.05), the “alveolitis score, compared with the model group” value is on record as “significantly reduced” and the “pulmonary fibrosis score, compared with the model group” value is given as “significantly reduced”. For the same compound, in test [6] (P<0.01, P<0.05), the “IC, compared with the model group” value was “increased”. Further, in test [6], the IC was 10.77 ± 0.83 mL/s. For the same compound, the “Total efficacy related indicator R value” in test [2] is given as 1.61 ± 0.32^#^. For the same compound, in test [3] (P<0.01, P<0.05), the “IC, compared with the model group” value was “significantly increased”. In test [3], this compound returned a Cydn of 0.33 ± 0.03 mL/s and an FEV0.3 of 10.68 ± 0.97 mL/s.
